Test results as given in patent US20260207569A1, “LPA1 ANTAGONISTS FOR TREATING INTERSTITIAL LUNG DISEASE” (Bristol-Myers Squibb Company, priority 2022, published 2026).

Experiment: Phase 2 PPF cohort safety: adverse events, prespecified asymptomatic or symptomatic blood pressure reduction criteria, dose reductions
Type: in vivo, human
Details: for Patients with asymptomatic blood pressure reduction, (%) / Patients with asymptomatic blood pressure reduction, no. / Patients with symptomatic blood pressure reduction, (%) / Patients with symptomatic blood pressure reduction, no.: prespecified criteria
Protocol: A total of 123 participants with PPF were randomized. Participants (age ≥21 years) were randomized (1:1:1) to receive 30 mg or 60 mg Compound A or PBO twice daily for 26 weeks. […] Immunosuppressive medications (mycophenolate mofetil, mycophenolic acid, azathioprine and/or tacrolimus) were permitted only if dosing is stable for ≥6 months prior to screening. If receiving antifibrotic agents pirfenidone or nintedanib, patients had to receive a stable dosage for ≥3 months prior to screening and during the screening period; if not receiving pirfenidone or nintedanib, patients had to be naive to both drugs or not have received either 4 weeks prior to Day 1. A total of 47 (38.2%) subjects were receiving antifibrotic treatment (with or without immunosuppression therapy). Of those subjects, 34 were being treated with nintedanib and 13 with pirfenidone. Participants were stratified by usual interstitial pneumonia (UIP) pattern (presence versus absence) and background therapy (antifibrotics +/−ILD-targeted immunosuppression versus ILD-targeted immunosuppression alone versus none). UIP pattern was present in 52% of subjects and unclassifiable ILD was he most common disease categorization.
Patient is experiencing any of the following, confirmed by retest within 15 minutes: • Seated systolic blood pressure <85 mmHg • Seated diastolic blood pressure <55 mmHg • Orthostatic hypotension
Patient is experiencing symptoms that, in the investigator's opinion, could be associated with a reduction in blood pressure and is also experiencing at least one of the following, confirmed by retest within 15 minutes: • Seated systolic blood pressure <100 mmHg or seated diastolic blood pressure <60 mmHg • Decrease of seated systolic blood pressure of ≥20 mmHg from the previous visit or decrease of seated diastolic blood pressure of ≥10 mmHg from the previous visit • Orthostatic hypotension • Orthostatic tachycardia

[1] = PPF cohort, 30-mg Compound A (n = 40)
[2] = PPF cohort, 60-mg Compound A (n = 42)

## CCCN(C)C(=O)OCc1c(-c2ccc(O[C@H]3CCC[C@H](C(=O)O)C3)c(C)n2)nnn1C [Compound A, (1S,3S)-3-((2-methyl-6-(1-methyl-5-(((methyl(propyl)carbamoyl)-oxy)methyl)-1H-1,2,3-triazol-4-yl)pyridin-3-yl)oxy)cyclohexane-1-carboxylic acid]
PPF cohort
  Day-1 blood pressure reduction: dose dependent day-1 blood pressure reduction
  Marked laboratory abnormalities: No notable imbalances in marked laboratory abnormalities among treatment groups
  Prespecified blood pressure reduction criteria across arms: increased in a dose-dependent manner
[1]
  Patients with dose reductions, (%): (15.0) %
  Patients with dose reductions, no.: 6 no.
  Patients with orthostatic hypotension (within asymptomatic blood pressure reduction), (%): (15.0) %
  Patients with orthostatic hypotension (within asymptomatic blood pressure reduction), no.: 6 no.
  Patients with orthostatic hypotension (within symptomatic blood pressure reduction), (%): (2.5) %
  Patients with orthostatic hypotension (within symptomatic blood pressure reduction), no.: 1 no.
  Patients with asymptomatic blood pressure reduction, (%): (22.5) %
  Patients with asymptomatic blood pressure reduction, no.: 9 no.
  Patients with symptomatic blood pressure reduction, (%): (5.0) %
  Patients with symptomatic blood pressure reduction, no.: 2 no.
[2]
  Patients with dose reductions, (%): (11.9) %
  Patients with dose reductions, no.: 5 no.
  Patients with orthostatic hypotension (within asymptomatic blood pressure reduction), (%): (26.2) %
  Patients with orthostatic hypotension (within asymptomatic blood pressure reduction), no.: 11 no.
  Patients with orthostatic hypotension (within symptomatic blood pressure reduction), (%): (9.5) %
  Patients with orthostatic hypotension (within symptomatic blood pressure reduction), no.: 4 no.
  Patients with asymptomatic blood pressure reduction, (%): (31.0) %
  Patients with asymptomatic blood pressure reduction, no.: 13 no.
  Patients with symptomatic blood pressure reduction, (%): (14.3) %
  Patients with symptomatic blood pressure reduction, no.: 6 no.
PPF, 30 mg BID
  Low BP thresholds (“events”): 30%
PPF, 30 mg BID (n = 40)
  COVID-19, %: (15.0) %
  COVID-19, no.: 6
  Cough, %: (7.5) %
  Cough, no.: 3
  Deaths due to TEAEs, no.: 0
  Diarrhea, %: (15.0) %
  Diarrhea, no.: 6
  Discontinuations due to TEAEs, %: (2.5) %
  Discontinuations due to TEAEs, no.: 1
  Dizziness, no.: 0
  Dyspnea, %: (5.0) %
  Dyspnea, no.: 2
  Hypertension, no.: 0
  Hypotension, %: (10.0) %
  Hypotension, no.: 4
  Nausea, %: (10.0) %
  Nausea, no.: 4
  Orthostatic hypotension, %: (5.0) %
  Orthostatic hypotension, no.: 2
  Patients with ≥1 TEAE related to study drug, no.: 7
  Patients with ≥1 TEAE, no.: 33
  Patients with ≥1 TESAE, no.: 4
  Rash, %: (7.5) %
  Rash, no.: 3
  Vomiting, %: (7.5) %
  Vomiting, no.: 3
PPF, 60 mg BID
  Orthostatic hypotension (asymptomatic and symptomatic) vs other groups: higher in the 60 mg group than for other groups
PPF, 60 mg BID (n = 42)
  COVID-19, %: (14.3) %
  COVID-19, no.: 6
  Cough, %: (11.9) %
  Cough, no.: 5
  Deaths due to TEAEs, no.: 0
  Diarrhea, %: (7.1) %
  Diarrhea, no.: 3
  Discontinuations due to TEAEs, no.: 0
  Dizziness, %: (9.5) %
  Dizziness, no.: 4
  Dyspnea, no.: 0
  Hypertension, %: (2.4) %
  Hypertension, no.: 1
  Hypotension, %: (7.1) %
  Hypotension, no.: 3
  Nausea, %: (2.4) %
  Nausea, no.: 1
  Orthostatic hypotension, %: (9.5) %
  Orthostatic hypotension, no.: 4
  Patients with ≥1 TEAE related to study drug, no.: 11
  Patients with ≥1 TEAE, no.: 28
  Patients with ≥1 TESAE, no.: 5
  Rash, no.: 0
  Vomiting, no.: 0
PPF, 60 mg BID versus placebo
  Adverse event profile other than low blood pressure: generally in favor of the 60 mg group versus placebo
